No end group written: not given here.
Key:
[1] = In vivo CSF accumulation and brain distribution of dye-labeled MTS after IV tail vein injection; parameters: species or system rat; conditions: for amount present relative to MTS_CPEC4_V2 / distribution in brain (fluorescence imaging of coronal slices): rat, IV tail vein; for amount present relative to MTS_CPEC4_V2: CSF, dimeric peptide, fold higher than MTS_CPEC4_V2; for distribution in brain (fluorescence imaging of coronal slices): dye-labeled MTS
Protocol: (§1) The MTS is labeled with a dye that allows us to visualize its location. It is injected IV into the tail vein of a rat. After the indicated time, the CSF is isolated from the cisterna magna. The brain is harvested. After a fixation period, the brain is sliced in 1 mm coronal segments (front to back). The individual slices of the brain are imaged using fluorescence to locate the regions of peptide accumulation.
as §1, with “Dimeric MTS_Z310-5 is present in an amount 3× higher than MTS_CPEC4_V2 (FIG. 26). […] The MTS” for “The MTS”, “of peptide accumulation” for “of peptide accumulation.”
as §1, with “Dimeric MTS_Z310-2 is present in an amount 9× higher than MTS_CPEC4_V2 (FIG. 27). […] The MTS” for “The MTS”, “of peptide accumulation” for “of peptide accumulation.”

[2] = system: rat choroid plexus epithelial cells (Z310); assay: Transwell transport across rat choroid plexus epithelial cells (Z310); format: cell-based
Protocol: FIG. 15 is an in vitro transwell assay used to determine the ability of the MTS_CPEC4 phage clone or peptide to cross a choroid plexus barrier model derived from a Rat (Z310) cells). The amount of input placed on one side of the barrier (the “blood” side) and the amount that passes through the cells to the other side (the CSF side) is measured. The top table represents the data for the phage clone. The empty phage has no MTS peptide attached. The amount of phage in each side of the transwell is determined by bacterial titering. The bottom table represents the data for the synthetic peptide. Here the peptide is labeled with a fluorophore so the peptide on either side of the barrier can be measured. Dextran-dye (such as Alexa Fluor 488) is used as a control molecule. This molecule should not pass through the transwell and assures that the choroid plexus model is valid.
Other lead MTS peptides were examined using a transwell transport set up with rat choroid plexus cells (FIG. 24). Eight phage clones were enriched in the CSF. Individual phage clones were then tested for transcytosis in vitro on Z310 choroid plexus cells and CSF accumulation in rats. MTS_Z310-2 (SEQ ID NO:4) and MTS_Z310-5 (SEQ ID NO:7) phage clones were carried forward for further evaluation. […] The 20% transport is better than that seen with CPEC4. […]

[3] = Serum stability of MTS peptide; format: in vitro ADME; conditions: read-out: peptide remains intact
Protocol: The stability of the different MTS sequences is important. […] 80% of the peptide remains intact at 24 hours. Modifications were mapped by MS.

choroid plexus cells = assay: Transport across monolayer of choroid plexus cells with dye or streptavidin cargo (FIG. 21); format: cell-based; conditions: chemical (AF647 dye) and protein (50 kDa Streptavidin) cargoes
From the text: The integrity of the monolayer with tight junctions is observed by the lack of diffusion or transport of low a molecular weight dye (750) maleimide), a 10 kDa dextran polymer, or larger protein (50 kDa). In the SA conjugate, the MTS has a biotin in the core structure. The biotin is then conjugated to a streptavidin protein labeled with a fluorophore.

[4] = system: human primary choroid plexus epithelial cells; assay: Transwell transport of fluorescent protein cargo across human choroid plexus in vitro model; format: cell-based
From the text: A rat model was developed as well. Selection to identify a phage clone from the library that crosses the choroid plexus epithelial barrier has also been informed. […] The phage clone was transported into the CSF selectively and data supported similar transport for the MTS peptide.
FIG. 13 represents a dimer of the CPEC4 peptide. The CPEC4 peptide was synthesized as a dimer and having a biotin handle that allows for attachment of fluorescently labeled proteins.
6-9% of the protein is transported across the cell layer. Tight junctions remain intact as witnessed by lack of dextran transport and maintenance of transepithelial resistance at the end of the experiment.

[5] = system: choroid plexus epithelial cell layer; assay: Phage clone transport through human choroid plexus cells in vitro (FIG. 12); format: cell-based; conditions: phage-displayed peptide
Protocol: CPEC4_Phage clone sequence […] (SEQ ID NO:2) was the lead peptide sequence in these studies. CPEC4 phage clone is enriched as multiple rounds of panning were performed. CPEC4 phage clone is selected from the transwell indicating transport and release.
The phage clone remains viable during the cellular transport.

Molecule: Dimeric MTS_Z310-5: comprises two MTS peptides each having the sequence SKETYSMNAQRQHERS (SEQ ID NO:7) (also: dimer, linkage not given here)
- amount present relative to MTS_CPEC4_V2 [1]: 3 ×
- distribution in brain (fluorescence imaging of coronal slices) [1]: distributed throughout the ventricular system of the brain

Molecule: SKETYSMNAQRQHERS (molecular transport peptide) [MTS_Z310-5]
- transport of protein cargo [2]: 20%

Molecule: FPSWTSKNQQWTNQRQ (molecular transport peptide) [MTS_Z310-2]
- transport of protein cargo [2]: 20%

Molecule: CSCC[C@H](NC(=O)[C@H](CCC(N)=O)NC(=O)[C@H](Cc1c[nH]c2ccccc12)NC(=O)[C@H](CC(=O)O)NC(=O)[C@H](CC(C)C)NC(=O)[C@H](CO)NC(=O)[C@@H](NC(=O)[C@H](CCC(N)=O)NC(=O)[C@H](CC(C)C)NC(=O)[C@H](CCCCN)NC(=O)[C@H](Cc1ccc(O)cc1)NC(=O)[C@H](C)NC(=O)[C@H](CC(=O)O)NC(C)=O)[C@@H](C)O)C(=O)N[C@@H](Cc1c[nH]c2ccccc12)C(=O)N[C@@H](CC(N)=O)C(=O)N1CCC[C@H]1C(=O)NCCOCCOCCOCCOCCOCCOCCOCCOCCOCCOCCOCCC(N)=O [MTS-CPEC4_V2]
- remaining at 24 h [3]: 80%
- accumulation in the CSF ([1]; rats, tail vein injection): accumulating in the CSF
- transport across monolayer of choroid plexus cells (choroid plexus cells): efficiently transported

Molecule: Dimeric MTS_Z310-2: comprises two MTS peptides each having the sequence FPSWTSKNQQWTNQRQ (SEQ ID NO:4) (also: dimer, linkage not given here)
- amount present relative to MTS_CPEC4_V2 [1]: 9 ×
- distribution in brain (fluorescence imaging of coronal slices) [1]: distributed throughout the ventricular system

Molecule: DGYKLQTSLDWQMWNP (molecular transport peptide) [MTS_CPEC4_V1]
- protein transported across the cell layer [4]: 6-9%
- transport across monolayer of choroid plexus cells (choroid plexus cells): efficiently transported
- transport of phage particle across choroid plexus epithelial cell layer [5]: mediates transport of a large phage particle across choroid plexus epithelial cell layer

Molecule: MTS_CPEC4_V2 (SEQ ID NO: 1) dimers: comprises two MTS peptides each having the sequence DAYKLQTSLDWQMWNP (SEQ ID NO: 1) (also: dimer, linkage not given here)
- distribution in brain (fluorescence imaging of coronal slices) [1]: distributed throughout the ventricular system of the brain
